According to ChEMBL document CHEMBL3826947, “New 4-Acyl-1-phenylaminocarbonyl-2-phenylpiperazine Derivatives as Potential Inhibitors of Adenovirus Infection. Synthesis, Biological Evaluation, and Structure-activity Relationships” (J Med Chem, 2016):

Tests used:
[1] = tested on: Human adenovirus 5; assay: Antiviral activity against HAdV5 infected in 293beta5 cells assessed as inhibition of plaque formation at 10 uM after 7 days by GFP reporter gene assay relative to control; format: functional; settings: Human mastadenovirus C, 293beta5, 168 h
[2] = tested on: Human adenovirus 5; assay: Antiviral activity against HAdV5 infected in human A549 cells assessed as inhibition of viral entry at 50 uM preincubated for 45 mins followed by cell addition measured after 48 hrs by GFP reporter gene assay relative to control; format: functional; settings: Human mastadenovirus C
[3] = Cytotoxicity against human A549 cells assessed as cell viability after 48 hrs by Alamar blue assay; format: cell-based
[4] = Selectivity index, ratio of CC50 for human A549 cells to IC50 for inhibition of HAdV5 plaque formation in 293beta5 cells; format: functional
[5] = Antiviral activity against HAdV16 infected in 293beta5 cells assessed as inhibition of plaque formation after 7 days by GFP reporter gene assay; format: functional, cell-based, Human adenovirus 16; settings: Human mastadenovirus B, 293beta5, 168 h
[6] = tested on: Human adenovirus 5; assay: Antiviral activity against HAdV5 infected in human A549 cells assessed as inhibition of viral genome entry in nucleus by measuring nuclear associated viral DNA level at 50 uM after 45 mins by real time PCR method (reference value: 78.55 +/- 1.37%); format: functional; design: scale not given: the % may be the effect or the level left
[7] = Selectivity index, ratio of CC50 for human A549 cells to IC50 for inhibition of HAdV16 plaque formation in 293beta5 cells; format: functional
[8] = Antiviral activity against HAdV16 infected in human A549 cells assessed as reduction in viral yield at 50 uM after 48 hrs by virus burst size assay relative to control; format: functional, Human adenovirus 16
[9] = tested on: Human adenovirus 5; assay: Antiviral activity against HAdV5 infected in human A549 cells assessed as inhibition of viral DNA replication at 50 uM after 24 hrs by quantitative real time PCR method relative to control; format: functional; settings: Human mastadenovirus C, A549, 24 h
[10] = tested on: A549; assay: Effect on GAPDH gene expression in human A549 cells at 50 uM after 24 hrs by quantitative real time PCR method; format: ADME, cell-based; settings: a549, 24 h
[11] = tested on: Human adenovirus 5; assay: Antiviral activity against HAdV5 infected in human A549 cells assessed as reduction in viral yield at 50 uM after 48 hrs by virus burst size assay relative to control; format: functional
[12] = tested on: Human adenovirus 5; assay: Antiviral activity against HAdV5 infected in 293beta5 cells assessed as inhibition of plaque formation after 7 days by GFP reporter gene assay; format: functional, organism-based; settings: for IC50: Human mastadenovirus C, 293beta5, 168 h

Structure (SMILES) | inhibition at 10 µM [1] | inhibition at 50 µM [2] | CC50 at 48 h [3] | also measured
CC(C)(C)OC(=O)N1CCN(C(=O)Nc2ccccc2[N+](=O)[O-])C(c2ccccc2)C1 (configuration not stated) | 100% | 62% | 82.2 µM | 
CC1CN(C(=O)c2cc3ccccc3o2)CCN1C(=O)Nc1ccc([N+](=O)[O-])cc1 (configuration not stated) | 94% | 86% | 51.1 µM | 
COc1ccc(NC(=O)N2CCN(C(=O)c3ccccc3)CC2C)cc1 (configuration not stated) | 0% | 50% |  | 
CC(C)(C)OC(=O)N1CCN(C(=O)Nc2ccc(Cl)c(C(F)(F)F)c2)C(c2ccccc2)C1 (configuration not stated) | 100% | 93% | 27.5 µM | 
COc1ccc(NC(=O)N2CCN(C(=O)c3cc4ccccc4o3)CC2C)cc1 (configuration not stated) | 34% | < 20% |  | 
O=C(c1cc2ccccc2o1)N1CCN(C(=O)Nc2ccccc2[N+](=O)[O-])C(c2ccccc2)C1 (configuration not stated) | 100% | 38% | 132 µM | Ratio CC50/IC50 [4]: 53.3; IC50 [5]: 2.3 µM; Activity [6]: 79.26%; Ratio CC50/IC50 [7]: 57.3; fold change (FC) [8]: 46.5; inhibition at 50 µM [9]: 73.1%; Activity [10]: Non-toxic; fold change (FC) [11]: 34.5; inhibition [12]: Dose-dependent effect; IC50 [12]: 2.5 µM
COc1ccc(NC(=O)N2CCN(C(=O)OC(C)(C)C)CC2C)cc1 (configuration not stated) | 49% |  |  | 
CC1CN(C(=O)OC(C)(C)C)CCN1C(=O)Nc1cc(C(F)(F)F)ccc1Cl (configuration not stated) | 96% | 31% | 63.5 µM | 
CC(C)(C)C(=O)N1CCN(C(=O)Nc2ccc(C#N)cc2)C(c2ccccc2)C1 (configuration not stated) | 84% | 74% | 147 µM | 
CC1CN(C(=O)OC(C)(C)C)CCN1C(=O)Nc1ccc(C(F)(F)F)cc1 (configuration not stated) | 31% | 57% | 137 µM | 
CC1CN(C(=O)OC(C)(C)C)CCN1C(=O)Nc1ccc(Cl)c(C(F)(F)F)c1 (configuration not stated) | 100% | 72% | 20.8 µM | 
CC1CN(C(=O)C(C)(C)C)CCN1C(=O)Nc1ccc([N+](=O)[O-])cc1 (configuration not stated) | 0% | 50% |  | 
CC1CN(C(=O)c2ccccc2)CCN1C(=O)c1ccc([N+](=O)[O-])cc1 (configuration not stated) | 0% | < 20% |  | 
COc1ccc(C(=O)N2CCN(C(=O)C(C)(C)C)CC2C)cc1 (configuration not stated) | 0% | < 20% |  | 
CC1CN(C(=O)OC(C)(C)C)CCN1C(=O)Nc1ccc([N+](=O)[O-])cc1 (configuration not stated) | 91% | 65% | 143 µM | 
CC1CN(C(=O)c2cc3ccccc3o2)CCN1C(=O)Nc1ccc(Cl)cc1 (configuration not stated) | 70% | 36% | 144 µM | 
CC(C)(C)OC(=O)N1CCN(C(=O)Nc2ccc(C#N)cc2)C(c2ccccc2)C1 (configuration not stated) | 67% | 45% | 91.3 µM | 
CC(C)(C)OC(=O)N1CCN(C(=O)Nc2ccc(C(F)(F)F)cc2)C(c2ccccc2)C1 (configuration not stated) | 71% | 75% | 42.1 µM | 
O=C(c1cc2ccccc2o1)N1CCN(C(=O)Nc2ccc(C(F)(F)F)cc2)C(c2ccccc2)C1 (configuration not stated) | 100% | 61% | 70.7 µM | 
O=C(c1cc2ccccc2o1)N1CCN(C(=O)Nc2ccc(Cl)cc2)C(c2ccccc2)C1 (configuration not stated) | 100% | 33% | 194 µM | Ratio CC50/IC50 [4]: 79; IC50 [5]: 3.4 µM; Activity [6]: 77.71%; Ratio CC50/IC50 [7]: 56.9; fold change (FC) [8]: 27.4; inhibition at 50 µM [9]: 78.9%; Activity [10]: Non-toxic; fold change (FC) [11]: 9.9; inhibition [12]: Dose-dependent effect; IC50 [12]: 2.5 µM
CC1CN(C(=O)c2cc3ccccc3o2)CCN1C(=O)Nc1ccccc1F (configuration not stated) | 51% | 0% |  | 
CC1CN(C(=O)OC(C)(C)C)CCN1C(=S)Nc1ccc([N+](=O)[O-])cc1 (configuration not stated) | 100% | < 20% | 26.3 µM | 
CC1CN(C(=O)c2cc3ccccc3o2)CCN1C(=O)Nc1ccccc1[N+](=O)[O-] (configuration not stated) | 91% | 0% | 203 µM | 
COc1ccc(NC(=O)N2CCN(C(=O)C(C)(C)C)CC2c2ccccc2)cc1 (configuration not stated) | 70% | 0% | 199 µM | 
CC1CN(C(=O)OC(C)(C)C)CCN1C(=O)Nc1ccc(Cl)cc1 (configuration not stated) | 62% | 37% | 150 µM | 

Structure (SMILES) | inhibition at 10 µM [1] | inhibition at 50 µM [2] | CC50 at 48 h [3] | also measured
CC(C)(C)OC(=O)N1CCN(C(=O)Nc2ccc(F)cc2)C(c2ccccc2)C1 (configuration not stated) | 76% | 70% | 110 µM | 
CC(C)(C)OC(=O)N1CCN(C(=O)Nc2cc(C(F)(F)F)ccc2Cl)C(c2ccccc2)C1 (configuration not stated) | 100% | 89% | 93.4 µM | 
CC1CN(C(=O)c2cc3ccccc3o2)CCN1C(=O)Nc1ccc(F)cc1 (configuration not stated) | 92% | 0% | 220 µM | 
O=C(c1cc2ccccc2o1)N1CCN(C(=O)Nc2ccc(F)cc2)C(c2ccccc2)C1 (configuration not stated) | 99% | 88% | 12.5 µM | 
CC1CN(C(=O)c2cc3ccccc3o2)CCN1C(=O)Nc1ccc(F)cc1F (configuration not stated) | 34% | 0% |  | 
COc1ccc(C(=O)N2CCN(C(=O)OC(C)(C)C)CC2C)cc1 (configuration not stated) | 34% | < 20% |  | 
CC1CN(C(=O)C(C)(C)C)CCN1C(=S)Nc1ccc([N+](=O)[O-])cc1 (configuration not stated) | 64% | < 20% |  | 
CC1CN(C(=O)c2cc3ccccc3o2)CCN1C(=O)Nc1ccc(C#N)cc1 (configuration not stated) | 83% | 78% | 118 µM | 
COc1ccc(NC(=O)N2CCN(C(=O)OC(C)(C)C)CC2c2ccccc2)cc1 (configuration not stated) | 79% | 39% | 133 µM | 
N#Cc1ccc(NC(=O)N2CCN(C(=O)c3cc4ccccc4o3)CC2c2ccccc2)cc1 (configuration not stated) | 98% | 63% | 200 µM | Ratio CC50/IC50 [4]: 42.7; IC50 [5]: 3.9 µM; Activity [6]: 81.05%; Ratio CC50/IC50 [7]: 51.2; fold change (FC) [8]: 60.9; inhibition at 50 µM [9]: 88.5%; Activity [10]: Non-toxic; fold change (FC) [11]: 16.9; inhibition [12]: Dose-dependent effect; IC50 [12]: 4.7 µM
CC1CN(C(=O)c2ccccc2)CCN1C(=O)Nc1ccc([N+](=O)[O-])cc1 (configuration not stated) | 72% | 50% |  | 
COc1ccc(C(=O)N2CCN(C(=O)c3ccccc3)CC2C)cc1 (configuration not stated) | 0% | 0% |  | 
CC1CN(C(=O)OC(C)(C)C)CCN1C(=O)Nc1ccccc1[N+](=O)[O-] (configuration not stated) | 50% | 0% |  | 
CC(C)(C)C(=O)N1CCN(C(=O)Nc2ccc([N+](=O)[O-])cc2)C(c2ccccc2)C1 (configuration not stated) | 44% | 60% | 102 µM | 
CC1CN(C(=O)c2ccccc2)CCN1C(=S)Nc1ccc([N+](=O)[O-])cc1 (configuration not stated) | 94% | 41% | 31.4 µM | 
CC1CN(C(=O)c2cc3ccccc3o2)CCN1C(=O)Nc1ccccc1Br (configuration not stated) | 56% | 44% |  | 
CC1CN(C(=O)c2cc3ccccc3o2)CCN1C(=O)Nc1ccccc1 (configuration not stated) | 11% | 0% |  | 
CC1CN(C(=O)c2cc3ccccc3o2)CCN1C(=O)Nc1ccc(C(F)(F)F)cc1 (configuration not stated) | 92% | 60% | 82.2 µM | 
COc1ccc(NC(=O)N2CCN(C(=O)C(C)(C)C)CC2C)cc1 (configuration not stated) | 0% | < 20% |  | 
CC1CN(C(=O)OC(C)(C)C)CCN1C(=O)c1ccc([N+](=O)[O-])cc1 (configuration not stated) | 34% | < 20% |  | 
Cc1ccc(NC(=O)N2CCN(C(=O)OC(C)(C)C)CC2c2ccccc2)cc1 (configuration not stated) | 63% | 65% | 165 µM | 
CC(C)(C)OC(=O)N1CCN(C(=O)Nc2ccc(Cl)cc2)C(c2ccccc2)C1 (configuration not stated) | 86% | 96% | 17.1 µM | 
COc1ccccc1NC(=O)N1CCN(C(=O)c2cc3ccccc3o2)CC1C (configuration not stated) | 16% | 0% |  | 
CC1CN(C(=O)C(C)(C)C)CCN1C(=O)c1ccc([N+](=O)[O-])cc1 (configuration not stated) | 23% | < 20% |  | 
